# Where no end group is shown, it is not given here. [ ]: non-standard residue; d: D form. pGlu = O=C1CC[C@@H](C(=O)O)N1
# Key:
# [1] = target: T1, angiotensin conversion enzyme (Oryctolagus cuniculus, UniProt P12822); experiment: Inhibition of angiotensin conversion enzyme in vitro (method of Cushman and Cheung); format: biochemical; conditions: enzyme isolated from rabbit lungs; read-out: I50
# T1 construct: with the enzyme isolated from rabbit lungs; from tissue; host or cells: rabbit lungs
# T1 sequence (P12822 34-1310): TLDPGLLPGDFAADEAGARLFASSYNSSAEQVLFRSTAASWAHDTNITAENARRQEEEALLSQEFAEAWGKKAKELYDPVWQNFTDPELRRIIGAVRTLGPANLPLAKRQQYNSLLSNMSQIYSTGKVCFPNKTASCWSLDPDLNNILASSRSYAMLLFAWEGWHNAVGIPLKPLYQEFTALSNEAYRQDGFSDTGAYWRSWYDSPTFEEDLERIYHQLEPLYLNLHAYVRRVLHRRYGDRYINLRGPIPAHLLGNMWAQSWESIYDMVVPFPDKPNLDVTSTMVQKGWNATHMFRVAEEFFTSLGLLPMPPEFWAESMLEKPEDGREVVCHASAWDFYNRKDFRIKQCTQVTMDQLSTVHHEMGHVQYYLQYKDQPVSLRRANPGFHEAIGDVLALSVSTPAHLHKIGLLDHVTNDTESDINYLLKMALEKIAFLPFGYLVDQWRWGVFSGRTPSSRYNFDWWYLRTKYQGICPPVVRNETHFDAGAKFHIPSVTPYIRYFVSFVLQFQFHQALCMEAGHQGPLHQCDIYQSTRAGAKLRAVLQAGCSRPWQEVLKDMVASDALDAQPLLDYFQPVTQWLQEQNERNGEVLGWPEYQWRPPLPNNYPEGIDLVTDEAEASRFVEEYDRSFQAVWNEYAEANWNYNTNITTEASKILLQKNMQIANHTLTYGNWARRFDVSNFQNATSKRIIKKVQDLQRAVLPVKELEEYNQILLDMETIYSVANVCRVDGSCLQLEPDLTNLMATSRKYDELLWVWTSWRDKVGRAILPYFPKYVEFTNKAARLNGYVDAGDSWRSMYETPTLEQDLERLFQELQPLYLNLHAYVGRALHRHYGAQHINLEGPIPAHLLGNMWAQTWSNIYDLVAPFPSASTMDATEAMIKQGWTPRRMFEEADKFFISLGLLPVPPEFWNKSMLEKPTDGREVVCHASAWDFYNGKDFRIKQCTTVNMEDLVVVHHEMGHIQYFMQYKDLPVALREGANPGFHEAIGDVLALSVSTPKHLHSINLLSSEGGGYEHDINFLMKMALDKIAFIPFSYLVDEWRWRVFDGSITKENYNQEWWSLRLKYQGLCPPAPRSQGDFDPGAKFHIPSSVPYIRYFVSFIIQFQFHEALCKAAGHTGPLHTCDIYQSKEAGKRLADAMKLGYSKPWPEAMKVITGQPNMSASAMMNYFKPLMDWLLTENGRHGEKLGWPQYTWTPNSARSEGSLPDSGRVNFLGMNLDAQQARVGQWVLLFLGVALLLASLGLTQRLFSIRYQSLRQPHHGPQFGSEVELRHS
# Protocol: The inhibition of angiotensin conversion enzyme by the compounds corresponding to general formula (I) is measured, in vitro, with the enzyme isolated from rabbit lungs according to the method by Cushman and Cheung [Biochem.-Pharmacol., 20, 1637, (1971)].
# In Table 1 the values of I50 (μM) obtained by using the retroinverted analogues and natural not-modified peptide, which is used as the comparison term, are reported.
# [2] = tested on: angiotensin conversion enzyme and peptidases; experiment: Stability: resistance of peptides to angiotensin conversion enzyme and to peptidases; format: in vitro ADME; conditions: after 3 hours of incubation
# Excerpt: The stability of peptides of formula (B) and (C) has been verified by determining the resistance of said peptides to the angiotensin conversion enzyme and to peptidases.
# [3] = tested on: angiotensin conversion enzyme; conditions: 15 minutes of preincubation with the enzyme; cited from earlier work
Compound,IC50 [1] [µM],resistance towards enzymatic degradation [2],loss of inhibiting activity [3]
"C[C@@H](C(=O)N[C@H](Cc1ccccc1)C(=O)N[C@H](CCCCN)C(=O)N[C@@H]1CCC(=O)N1)C(=O)N1C[C@@H](Sc2ccccc2)C[C@H]1C(=O)O [B, gGlp--Dlys--DPhe--(S)m Ala--Pro--(4-allo--SPh)--OH]",7.5,resistant,–
Glp-Lys-Trp-Ala-Pro ([pGlu]KWAP) [BPP5a],–,–,complete loss

# — patent US4728725A, “Retro-inverted peptides analogues of Bradykinin Potentiator BPP5a” (Enichem, S.p.A., priority 1984, dated 1988)
